The source made the active and inactive calls. The calls are words filed in the database; no cut-off is given here.

The nature of assay [1]: Anticancer activity against human COLO205 cells by MTT assay. Format: functional, cell-based. Conditions: COLO 205.
Another assay relates to U-937. Put plainly: Anticancer activity against human U937 cells by MTT assay. The class given is functional, cell-based.
In the next assay the test system is MCF7. Put plainly: Anticancer activity against human MCF7 cells by MTT assay. The class given is functional, cell-based.
In another assay the test system is A549. Put plainly: Anticancer activity against human A549 cells by MTT assay. The class given is functional, cell-based.
For assay [2], the system named is COLO 205. Put plainly: Induction of DNA damage in human COLO205 cells assessed as tail DNA formation by alkaline comet assay (reference value: 0%). Format: functional.
In assay [3] the test system is COLO 205. Put plainly: Induction of cell cycle arrest in human COLO205 cells assessed as accumulation at G2/M phase after 24 hrs by flow cytometry. The class given is functional, cell-based.
Assay [4] can be described thus: Decrease in Bcl2 expression in human COLO205 cells after 24 hrs by western blot analysis. Format: functional, cell-based. Conditions: COLO 205.
Assay [5] relates to COLO 205. Put plainly: Increase in Bax expression in human COLO205 cells after 24 hrs by western blot analysis. Format: functional, cell-based.
Assay [6] can be described thus: Decrease in cyclin B1 expression in human COLO205 cells by western blot analysis. Conditions: COLO 205. Format: functional, cell-based.
Assay [7] deals with COLO 205. Put plainly: Effect on CDK1 expression in human COLO205 cells by western blot analysis. The class given is functional, cell-based.
Assay [8] has as its system COLO 205. Put plainly: Increase in Apaf1 expression in human COLO205 cells after 24 hrs by western blot analysis. Format: functional, cell-based.
Assay [9] has as its system COLO 205. Put plainly: Increase in procaspase-3 expression in human COLO205 cells after 24 hrs by western blot analysis. Format: functional, cell-based.
The test system of assay [10] is COLO 205. Put plainly: Increase in active caspase-3 expression in human COLO205 cells after 24 hrs by western blot analysis. The class given is functional, cell-based.
Assay [11] has as its system COLO 205. Put plainly: Increase in caspase-9 expression in human COLO205 cells after 24 hrs by western blot analysis. Format: functional, cell-based.
The nature of assay [12]: Decrease in NFkappaB expression in human COLO205 cells after 24 hrs by western blot analysis. Format: functional, cell-based. Conditions: COLO 205.

Take `FC(F)(F)Sc1ccc(-c2cc(CN(c3ncccn3)c3nc4ccccc4s3)on2)cc1`: the IC50 is 10.1 µM in [1], 19.4 µM in the assay with U-937, 17.2 µM in the assay with MCF7 and 29.8 µM in the assay on A549.

Regarding `COc1cc([C@@H]2c3cc4c(cc3[C@@H](O[C@@H]3O[C@@H]5CO[C@@H](C)O[C@H]5[C@H](O)[C@H]3O)[C@H]3COC(=O)[C@H]23)OCO4)cc(OC)c1O` [ETOPOSIDE], the IC50 in assay [1] turned out to be 0.47 µM; in the assay with U-937 it was 10.1 µM; in the assay on MCF7 it was 0.008 µM; in the assay on A549, 4.7 µM. The Activity in the assay on COLO 205 [2] came out at 6.564%. Also, the outcome (in the assay with COLO 205 [3]; in assay [4]) was Active. Further, the inhibition entry with COLO 205 [5] is “Active”.

For the compound `COc1ccc2nc(N(Cc3cc(-c4cc(OC)c(OC)c(OC)c4)no3)c3nc4ccc(F)cc4s3)sc2c1`, the IC50 came to 11.8 µM in assay [1], 44 µM in the assay with U-937, 26.6 µM in the assay on MCF7 and 61.9 µM in the assay on A549.

As for `COc1ccc2nc(N(Cc3cc(-c4ccc(OC(F)(F)F)cc4)no3)c3nc4ccc(F)cc4s3)sc2c1`, the IC50 was 9.94 µM in [1], 23.1 µM with U-937, 17.4 µM in the assay with MCF7 and 37.1 µM in the assay with A549.

For `C#CCN(c1ncccn1)c1nc2ccccc2s1`, the IC50 in [1] was 12 µM; in the assay with U-937 it was 15.7 µM; in the assay with MCF7, 18.3 µM; in the assay on A549, 17.4 µM. Also, the Activity with COLO 205 [2] is 4.194%. Further, the result (in the assay on COLO 205 [3]; in [4]) was Active. Also, in the assay with COLO 205 [5], the inhibition entry was “Active”.

Consider `COc1ccc2nc(N(Cc3cc(-c4ccccc4F)no3)c3nc4ccc(F)cc4s3)sc2c1`, for which the IC50 is 13.4 µM in assay [1], 29.4 µM with U-937, 28.5 µM in the assay on MCF7 and 51.8 µM in the assay with A549.

Consider `Brc1ccc(-c2cc(CN(c3ncccn3)c3nc4ccccc4s3)on2)cc1`, for which the 50% inhibitory concentration (IC50) turned out to be 8.82 µM in assay [1], 13.6 µM with U-937, 21.1 µM in the assay on MCF7 and 31.5 µM in the assay on A549.

Take `COc1ccc2nc(N(Cc3cc(-c4ccc(Br)cc4)no3)c3nc4ccc(F)cc4s3)sc2c1`: the IC50 in assay [1] came to 7 µM; with U-937, 34.9 µM; with MCF7, 41.1 µM; in the assay with A549, 32.7 µM.

For the compound `C#CCN(c1nc2ccc(F)cc2s1)c1nc2ccc(OC)cc2s1`, the IC50 in [1] was found to be 30.3 µM; with U-937, 24.9 µM; with MCF7, 27.8 µM; with A549, 24.4 µM.

On to `FC(F)(F)Oc1ccc(-c2cc(CN(c3ncccn3)c3nc4ccccc4s3)on2)cc1`, for which the IC50 in assay [1] amounted to 5.69 µM; with U-937, 13.5 µM; in the assay on MCF7, 14.8 µM; in the assay with A549, 31.8 µM.

For `COc1ccc(-c2cc(CN(c3ncccn3)c3nc4ccccc4s3)on2)cc1`, the half-inhibitory concentration (IC50) was 5.04 µM in [1], 13.9 µM in the assay on U-937, 30.7 µM with MCF7 and 30.4 µM in the assay with A549. Besides, in the assay with COLO 205 [2], the Activity amounted to 17.72%. The outcome (in the assay with COLO 205 [3]; in the assay on COLO 205 [8]; with COLO 205 [9]; in the assay with COLO 205 [10]; in the assay with COLO 205 [11]; in assay [4]) was Active. Besides, the inhibition result (in assay [6]; in assay [12]; with COLO 205 [5]) was “Active” throughout. The result in the assay on COLO 205 [7] was inactive.

For the compound `Fc1ccccc1-c1cc(CN(c2ncccn2)c2nc3ccccc3s2)on1`, the IC50 in [1] was determined as 13.2 µM; in the assay with U-937, 27.6 µM; in the assay on MCF7 it was 19.5 µM; in the assay on A549, 25.4 µM.

In the case of `COc1ccc2nc(N(Cc3cc(-c4ccc(SC(F)(F)F)cc4)no3)c3nc4ccc(F)cc4s3)sc2c1`, the IC50 in assay [1] is 11.1 µM; in the assay on U-937, 42.9 µM; with MCF7, 14.1 µM; with A549, 26.5 µM.

`COc1cc(-c2cc(CN(c3ncccn3)c3nc4ccccc4s3)on2)cc(OC)c1OC`: the concentration for half-maximal inhibition (IC50) in assay [1] is 10.2 µM; in the assay with U-937, 26.1 µM; with MCF7 it was 13.4 µM; in the assay on A549, 28.4 µM.

As for `COc1ccc(-c2cc(CN(c3nc4ccc(F)cc4s3)c3nc4ccc(OC)cc4s3)on2)cc1`, the IC50 in [1] turned out to be 11.4 µM; in the assay with U-937, 138 µM; with MCF7, 32.4 µM; in the assay with A549, 38.8 µM.

Source of the values: ChEMBL document CHEMBL3621053, “Isoxazole derivatives of 6-fluoro-N-(6-methoxybenzo[d]thiazol-2-yl)benzo[d]thiazol-2-amine and N-(pyrimidin-2-yl)benzo[d]thiazol-2-amine: regulation of cell cycle and apoptosis by p53 activation via mitochondrial-dependent pathways” (Medchemcomm, 2014).
